For data set [1] the following is noted: amide bond; 15-membered ring; PyBOP/DMAP; MeCN; 4.3 mM.
Data set [2] can be described thus: head-to-tail macrolactamisation of free linear pentapeptide 10 (H-NMeAA...Leu-OH), PyBOP (2 equiv), DMAP (3 equiv); Route E: peptide solution (4.3 mM in MeCN) added dropwise over 10 h to PyBOP/DMAP in MeCN, further 3 h stirring. The conditions noted are these: the molecule shown is the open-chain precursor; 15-membered ring; CH3CN; 1.0 mM; 20.0 °C; 13.0 h.

From PMC12155888, “Design, Synthesis, and Antitumor Biological Evaluation of Galaxamide and Its Analogs” (Molecules, 2025) come the findings set out here.

Like-named read-outs stand apart in the source and are kept apart here.

Turning to “Cyclo(Me-L-Leu-L-Leu-D-cyclohexyl-Gly-Me-L-Leu-L-Leu)”, in data set [1], the ring closure, isolated yield was determined as 51%.

As for “Cyclo(Me-L-Leu-D-Leu-D-Leu-Me-L-Leu-D-Leu)”, in data set [1], the ring closure, isolated yield amounted to 54%.

Take `CN[C@H](CC(C)C)C(=O)N[C@H](CC(C)C)C(=O)N[C@@H](CC(C)C)C(=O)N(C)[C@H](CC(C)C)C(=O)N[C@H](CC(C)C)C(=O)O` [H-D-N(Me)Leu-D-Leu-Leu-D-N(Me)Leu-D-Leu-OH]: the ring closure, isolated yield in data set [2] is 50%.

On to `CN[C@@H](CC(C)C)C(=O)N[C@@H](CC(C)C)C(=O)N[C@H](CC(=O)OC)C(=O)N(C)[C@@H](CC(C)C)C(=O)N[C@@H](CC(C)C)C(=O)O` [H-N(Me)Leu-Leu-D-Asp(OMe)-N(Me)Leu-Leu-OH], for which, in data set [2], the ring closure, isolated yield is 52%.

For the compound `CN[C@@H](CC(C)C)C(=O)N[C@@H](CC(C)C)C(=O)N[C@@H](C(=O)N(C)[C@@H](CC(C)C)C(=O)N[C@@H](CC(C)C)C(=O)O)C1CCCCC1` [H-N(Me)Leu-Leu-D-Chg-N(Me)Leu-Leu-OH], the ring closure, isolated yield in data set [2] amounted to 51%.

In the case of `CN[C@H](CC(C)C)C(=O)N[C@@H](CC(C)C)C(=O)N[C@@H](CC(C)C)C(=O)N(C)[C@H](CC(C)C)C(=O)N[C@@H](CC(C)C)C(=O)O` [H-D-N(Me)Leu-Leu-Leu-D-N(Me)Leu-Leu-OH], the ring closure, isolated yield in data set [2] turned out to be 48%.

Take `CN[C@@H](CC(C)C)C(=O)N[C@@H](CC(C)C)C(=O)N[C@H](Cc1ccccc1C)C(=O)N(C)[C@@H](CC(C)C)C(=O)N[C@@H](CC(C)C)C(=O)O` [H-N(Me)Leu-Leu-D-Phe(2-Me)-N(Me)Leu-Leu-OH]: in data set [2], the ring closure, isolated yield was found to be 53%.

Take `CN[C@@H](CC(C)C)C(=O)N[C@@H](CC(C)C)C(=O)N[C@H](CC(C)C)C(=O)N(C)[C@@H](CC(C)C)C(=O)N[C@@H](CC(C)C)C(=O)O` [H-N(Me)Leu-Leu-D-Leu-N(Me)Leu-Leu-OH]: in data set [2], the ring closure, isolated yield amounted to 45%.

On to `CN[C@H](CC(C)C)C(=O)N[C@H](CC(C)C)C(=O)N[C@H](CC(C)C)C(=O)N(C)[C@H](CC(C)C)C(=O)N[C@H](CC(C)C)C(=O)O` [H-D-N(Me)Leu-D-Leu-D-Leu-D-N(Me)Leu-D-Leu-OH], for which, in data set [2], the ring closure, isolated yield was found to be 48%.

Take “Cyclo(Me-L-Leu-L-Leu-Methylester-D-Asp-Me-L-Leu-L-Leu)”: the ring closure, isolated yield in data set [1] amounted to 52%.

Turning to `CN[C@@H](CC(C)C)C(=O)N[C@@H](CC(C)C)C(=O)NCC(=O)N(C)[C@@H](CC(C)C)C(=O)N[C@@H](CC(C)C)C(=O)O` [H-N(Me)Leu-Leu-Gly-N(Me)Leu-Leu-OH], the ring closure, isolated yield in data set [2] was found to be 51%.

Consider “Cyclo(Me-L-Leu-L-Leu-D-Ala-Me-L-Leu-L-Leu)”, for which the ring closure, isolated yield in data set [1] came to 49%.

Turning to “Cyclo(Me-L-Leu-D-Leu-L-Leu-Me-L-Leu-D-Leu)”, in data set [1], the ring closure, isolated yield came to 45%.

“Cyclo(Me-D-Leu-D-Leu-L-Leu-Me-D-Leu-D-Leu)”: the ring closure, isolated yield in data set [1] is 50%.

With “Cyclo(Me-L-Leu-L-Leu-4-Bro-D-Phe-Me-L-Leu-L-Leu)”, the ring closure, isolated yield in data set [1] turned out to be 55%.

Compound “Cyclo(Me-D-Leu-L-Leu-L-Leu-Me-D-Leu-L-Leu)” yielded a ring closure, isolated yield in data set [1] of 48%.

On to `CN[C@@H](CC(C)C)C(=O)N[C@@H](CC(C)C)C(=O)N1CCC[C@@H]1C(=O)N(C)[C@@H](CC(C)C)C(=O)N[C@@H](CC(C)C)C(=O)O` [H-N(Me)Leu-Leu-D-Pro-N(Me)Leu-Leu-OH], for which, in data set [2], the ring closure, isolated yield came to 51%.

Take `CN[C@@H](CC(C)C)C(=O)N[C@@H](CC(C)C)C(=O)N[C@H](Cc1ccc(Cl)cc1)C(=O)N(C)[C@@H](CC(C)C)C(=O)N[C@@H](CC(C)C)C(=O)O` [H-N(Me)Leu-Leu-D-Phe(4-Cl)-N(Me)Leu-Leu-OH]: the ring closure, isolated yield in data set [2] is 55%.

On to `CN[C@@H](CC(C)C)C(=O)N[C@@H](CC(C)C)C(=O)N[C@H](Cc1ccc(Br)cc1)C(=O)N(C)[C@@H](CC(C)C)C(=O)N[C@@H](CC(C)C)C(=O)O` [H-N(Me)Leu-Leu-D-Phe(4-Br)-N(Me)Leu-Leu-OH], for which the ring closure, isolated yield in data set [2] came to 55%.

In the case of `CN[C@@H](CC(C)C)C(=O)N[C@@H](CC(C)C)C(=O)N[C@@H](C(=O)N(C)[C@@H](CC(C)C)C(=O)N[C@@H](CC(C)C)C(=O)O)c1ccccc1` [H-N(Me)Leu-Leu-D-Phg-N(Me)Leu-Leu-OH], the ring closure, isolated yield in data set [2] was found to be 51%.

Take `CN[C@@H](CC(C)C)C(=O)N[C@@H](CC(C)C)C(=O)N[C@@H](C(=O)N(C)[C@@H](CC(C)C)C(=O)N[C@@H](CC(C)C)C(=O)O)C(C)C` [H-N(Me)Leu-Leu-D-Val-N(Me)Leu-Leu-OH]: in data set [2], the ring closure, isolated yield stood at 50%.

Take `CN[C@@H](CC(C)C)C(=O)N[C@H](CC(C)C)C(=O)N[C@@H](CC(C)C)C(=O)N(C)[C@@H](CC(C)C)C(=O)N[C@H](CC(C)C)C(=O)O` [H-N(Me)Leu-D-Leu-Leu-N(Me)Leu-D-Leu-OH]: the ring closure, isolated yield in data set [2] came to 45%.

For `CN[C@@H](CC(C)C)C(=O)N[C@@H](CC(C)C)C(=O)N[C@H](Cc1cccc(F)c1)C(=O)N(C)[C@@H](CC(C)C)C(=O)N[C@@H](CC(C)C)C(=O)O` [H-N(Me)Leu-Leu-D-Phe(3-F)-N(Me)Leu-Leu-OH], the ring closure, isolated yield in data set [2] was 53%.

Turning to `CN[C@@H](CC(C)C)C(=O)N[C@@H](CC(C)C)C(=O)N[C@H](Cc1cccc(C)c1)C(=O)N(C)[C@@H](CC(C)C)C(=O)N[C@@H](CC(C)C)C(=O)O` [H-N(Me)Leu-Leu-D-Phe(3-Me)-N(Me)Leu-Leu-OH], in data set [2], the ring closure, isolated yield was found to be 53%.

`CN[C@@H](CC(C)C)C(=O)N[C@@H](CC(C)C)C(=O)N[C@H](CCSC)C(=O)N(C)[C@@H](CC(C)C)C(=O)N[C@@H](CC(C)C)C(=O)O` [H-N(Me)Leu-Leu-D-Met-N(Me)Leu-Leu-OH]: in data set [2], the ring closure, isolated yield amounted to 52%.

On to `CN[C@@H](CC(C)C)C(=O)N[C@@H](CC(C)C)C(=O)N[C@H](Cc1ccc(C)cc1)C(=O)N(C)[C@@H](CC(C)C)C(=O)N[C@@H](CC(C)C)C(=O)O` [H-N(Me)Leu-Leu-D-Phe(4-Me)-N(Me)Leu-Leu-OH], for which, in data set [2], the ring closure, isolated yield was 50%.

For `CN[C@H](CC(C)C)C(=O)N[C@@H](CC(C)C)C(=O)N[C@H](CC(C)C)C(=O)N(C)[C@H](CC(C)C)C(=O)N[C@@H](CC(C)C)C(=O)O` [H-D-N(Me)Leu-Leu-D-Leu-D-N(Me)Leu-Leu-OH], the ring closure, isolated yield in data set [2] was found to be 45%.

As for `CN[C@@H](CC(C)C)C(=O)N[C@@H](CC(C)C)C(=O)N[C@H](Cc1ccc(OC)cc1)C(=O)N(C)[C@@H](CC(C)C)C(=O)N[C@@H](CC(C)C)C(=O)O` [H-N(Me)Leu-Leu-D-Tyr(OMe)-N(Me)Leu-Leu-OH], in data set [2], the ring closure, isolated yield came out at 52%.

As for `CN[C@@H](CC(C)C)C(=O)N[C@@H](CC(C)C)C(=O)N[C@H](Cc1ccccc1)C(=O)N(C)[C@@H](CC(C)C)C(=O)N[C@@H](CC(C)C)C(=O)O` [H-N(Me)Leu-Leu-D-Phe-N(Me)Leu-Leu-OH], the ring closure, isolated yield in data set [2] came out at 51%.

Regarding `CN[C@@H](CC(C)C)C(=O)N[C@@H](CC(C)C)C(=O)N[C@H](COC)C(=O)N(C)[C@@H](CC(C)C)C(=O)N[C@@H](CC(C)C)C(=O)O` [H-N(Me)Leu-Leu-D-Ser(OMe)-N(Me)Leu-Leu-OH], the ring closure, isolated yield in data set [2] is 52%.

Consider `CN[C@@H](CC(C)C)C(=O)N[C@@H](CC(C)C)C(=O)N[C@H](C)C(=O)N(C)[C@@H](CC(C)C)C(=O)N[C@@H](CC(C)C)C(=O)O` [H-N(Me)Leu-Leu-D-Ala-N(Me)Leu-Leu-OH], for which the ring closure, isolated yield in data set [2] is 49%.

In the case of `CN[C@@H](CC(C)C)C(=O)N[C@H](CC(C)C)C(=O)N[C@H](CC(C)C)C(=O)N(C)[C@@H](CC(C)C)C(=O)N[C@H](CC(C)C)C(=O)O` [H-N(Me)Leu-D-Leu-D-Leu-N(Me)Leu-D-Leu-OH], the ring closure, isolated yield in data set [2] came out at 54%.
